This is an account of results in PubChem BioAssay (NCI).

Among the test systems are COLO 205 colon; HOP-62 NSCLC; HT29 colon; KM12 colon; M14 melanoma; NCI-H226 lung; NCI-H522 lung; OVCAR-4 ovarian; SK-MEL-2 melanoma; TK-10 renal.
Holding throughout (test): growth of human tumour cells (NCI), 48 h

Values joined by “and” are separate entries in the source; they are usually repeats but may differ in a detail not shown here. Equal values may be shown once.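 96-well plates; 48 h exposure; 5 concentrations. Endpoints by linear interpolation between flanking doses. Not reached: highest tested concentration assigned. GI50 marks 50% less growth. TGI marks complete inhibition of growth.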 Some results are limits rather than exact numbers.

Take `CCCC(c1cc(C(C)(C)C)c(O)cc1C)c1cc(C(C)(C)C)c(O)cc1C`: the TGI in the assay with COLO 205 colon came out at 5.4 µM; in the assay with HOP-62 NSCLC, 8 µM; with HT29 colon it was 17.5 µM; with KM12 colon, 11.1 µM; in the assay with M14 melanoma it was 4.51 µM; with NCI-H226 lung, 4.53 µM. For the same compound, the TGI was found to be 5.72 µM in the assay with NCI-H522 lung, 19.4 µM in the assay on OVCAR-4 ovarian, 7.22 µM with SK-MEL-2 melanoma and 9.55 µM in the assay with TK-10 renal.

With `CC12OC(C(=O)C13CC3)C1C(=O)c3cccc(O)c3C(=O)C12` (configuration not stated), the GI50 in the assay on COLO 205 colon was 15.5 µM; in the assay on HOP-62 NSCLC, 7.21 µM; with HT29 colon, 10.6 µM; with KM12 colon, 13.8 µM; in the assay on M14 melanoma, 24.6 µM; with NCI-H226 lung, 22.9 µM. In addition, the GI50 in the assay on NCI-H522 lung is 8.84 µM; in the assay on OVCAR-4 ovarian it was 3.16 µM; in the assay on SK-MEL-2 melanoma it was 47.3 µM; in the assay on TK-10 renal it was 8.82 µM. The TGI with COLO 205 colon is > 96.2 µM; in the assay with HOP-62 NSCLC it was 19.7 µM; in the assay with HT29 colon it was > 100 µM; in the assay on KM12 colon, 38.1 µM; in the assay on M14 melanoma it was 63.5 µM; in the assay with NCI-H226 lung it was 78.5 µM. In addition, the TGI in the assay on NCI-H522 lung was > 76.9 µM; with OVCAR-4 ovarian it was 12 µM; in the assay on SK-MEL-2 melanoma, > 100 µM; in the assay on TK-10 renal it was 30.6 µM.

Take `CC(C)[C@]12O[C@H]1[C@@H]1O[C@]13[C@]1(O[C@H]1C[C@H]1C4=C(CC[C@@]13C)C(=O)OC4)[C@@H]2OC(=O)OC(C)(C)C`: the GI50 in the assay with COLO 205 colon is 0.014 µM; in the assay on HOP-62 NSCLC it was 0.0146 µM; in the assay with HT29 colon it was < 0.0121 µM; in the assay with KM12 colon, 0.116 µM; in the assay on M14 melanoma, 0.0157 µM; with NCI-H226 lung, < 0.0143 µM. The GI50 is 0.0137 µM in the assay on NCI-H522 lung, 0.0273 µM with OVCAR-4 ovarian, 0.0185 µM in the assay with SK-MEL-2 melanoma and 0.0329 µM in the assay with TK-10 renal. The TGI in the assay on COLO 205 colon was 0.0319 µM; with HOP-62 NSCLC, > 100 µM; with KM12 colon it was 3.41 µM; in the assay on M14 melanoma, 0.0336 µM; with NCI-H226 lung, 0.173 µM; in the assay with NCI-H522 lung, 0.0635 µM. The TGI with OVCAR-4 ovarian was > 100 µM; in the assay with SK-MEL-2 melanoma it was 0.0603 µM; in the assay on TK-10 renal, > 100 µM.

As to `CNC(=O)N(CCCC(NC(C)=O)C(=O)NCc1ccccc1)Cc1ccccc1` (configuration not stated), the TGI with COLO 205 colon, in the assay with HOP-62 NSCLC, in the assay on HT29 colon, with KM12 colon, in the assay on M14 melanoma and in the assay on NCI-H226 lung was > 100 µM throughout. Besides, the TGI in the assay with NCI-H522 lung, in the assay with OVCAR-4 ovarian, in the assay with SK-MEL-2 melanoma and in the assay with TK-10 renal was > 100 µM in each case.

For `CSc1nc(SC)c2cnn(-c3ccnc4cc(Cl)ccc34)c2n1`, the GI50 in the assay on COLO 205 colon was > 100 µM; with HOP-62 NSCLC, 29.1 µM; in the assay on HT29 colon, > 100 µM; in the assay on KM12 colon, > 100 µM; in the assay on M14 melanoma it was 34.8 µM; in the assay on NCI-H226 lung, 85.4 µM. Besides, the GI50 with NCI-H522 lung is 55.1 µM; in the assay on OVCAR-4 ovarian, > 100 µM; in the assay on SK-MEL-2 melanoma it was > 44.9 µM; in the assay on TK-10 renal, 30.9 µM. Also, the TGI is > 100 µM in the assay on COLO 205 colon; > 96.1 µM in the assay with HOP-62 NSCLC; > 100 µM with HT29 colon; > 100 µM with KM12 colon; > 94.7 µM in the assay with M14 melanoma; > 100 µM in the assay on NCI-H226 lung. Moreover, the TGI in the assay with NCI-H522 lung is > 100 µM; in the assay on OVCAR-4 ovarian it was > 100 µM; in the assay on SK-MEL-2 melanoma, > 72.8 µM; in the assay with TK-10 renal, > 89.1 µM.

On to `COC(=O)CC12CC(NC(=O)c3csc([C@@H](C[C@H](C(C)C)N(C)C(=O)[C@@H](NC(=O)[C@H]4CCCCN4C)C(C)C)OC(C)=O)n3)(C1)C2`, for which the GI50 was 0.0027 µM and 0.00684 µM with COLO 205 colon; 0.00498 µM and 0.00838 µM in the assay with HOP-62 NSCLC; 0.00364 µM and 0.0055 µM in the assay with HT29 colon; 0.00441 µM and 0.00939 µM in the assay with KM12 colon; 0.00355 µM in the assay with M14 melanoma; 0.00492 µM and 0.0217 µM in the assay with NCI-H226 lung. The GI50 with NCI-H522 lung is 0.00107 µM and 0.00333 µM; in the assay with OVCAR-4 ovarian, 0.455 µM and 0.326 µM; in the assay with SK-MEL-2 melanoma, 0.00441 µM and 0.00955 µM; in the assay with TK-10 renal it was 0.415 µM. In addition, the TGI with COLO 205 colon is 0.00961 µM and 0.0401 µM; in the assay with HOP-62 NSCLC, > 33.3 µM; in the assay on HT29 colon, > 33.3 µM; with KM12 colon, > 33.3 µM; with NCI-H522 lung it was 0.00593 µM and 0.0149 µM; in the assay on OVCAR-4 ovarian, > 33.3 µM. In addition, the TGI in the assay with SK-MEL-2 melanoma and with TK-10 renal was > 33.3 µM each time.

In the case of `NS(=O)(=O)c1ccc(N=Nc2c(O)[nH]c3cccc(CCc4ccncc4)c23)cc1`, the GI50 in the assay with COLO 205 colon, in the assay with HOP-62 NSCLC, in the assay with HT29 colon, in the assay with KM12 colon, in the assay on M14 melanoma and in the assay on NCI-H226 lung was > 25 µM each time. Besides, the GI50 in the assay with NCI-H522 lung, in the assay on OVCAR-4 ovarian, in the assay with SK-MEL-2 melanoma and in the assay on TK-10 renal was > 25 µM each time. Moreover, the TGI in the assay with COLO 205 colon, in the assay with HOP-62 NSCLC, with HT29 colon, in the assay with KM12 colon, in the assay on M14 melanoma and in the assay on NCI-H226 lung was > 25 µM throughout. For the same compound, the TGI with NCI-H522 lung, with OVCAR-4 ovarian, in the assay on SK-MEL-2 melanoma and in the assay on TK-10 renal was > 25 µM throughout.

Take `COc1cc2cc(Oc3ccc(NC(=O)Nc4ccc(F)c(C(F)(F)F)c4)cc3)c(C)nc2cc1OCCN1CCOCC1`: the GI50 is 1.87 µM in the assay with COLO 205 colon; 3.99 µM in the assay with HOP-62 NSCLC; 3.07 µM in the assay with HT29 colon; 2.69 µM in the assay on KM12 colon; 1.53 µM in the assay on M14 melanoma; 2.55 µM with NCI-H226 lung. Further, the GI50 in the assay on NCI-H522 lung was 2.04 µM; in the assay with OVCAR-4 ovarian it was 0.706 µM; with SK-MEL-2 melanoma, 2.38 µM; in the assay with TK-10 renal it was 4.94 µM. The TGI in the assay with COLO 205 colon was determined as 4.28 µM; with HOP-62 NSCLC it was 20.5 µM; with HT29 colon it was 21.8 µM; in the assay on KM12 colon it was 10.6 µM; with M14 melanoma it was 3.31 µM; in the assay with NCI-H226 lung, 13.2 µM. The TGI with NCI-H522 lung stood at 9.43 µM; in the assay on OVCAR-4 ovarian, 5.23 µM; in the assay on SK-MEL-2 melanoma, 7.58 µM; in the assay with TK-10 renal, 25.1 µM.
